The source of these data is patent US20130252890A1, “6,7-DIHYDRO-5H-BENZO[7]ANNULENE DERIVATIVES, PROCESS FOR PREPARATION THEREOF, PHARMACEUTICAL PREPARATIONS COMPRISING THEM, AND THE USE THEREOF FOR PRODUCTION OF MEDICAMENTS” (BAYER INTELLECTUAL PROPERTY GMBH, priority 2010, published 2013).

The structures appear in SMILES notation. pIC50: −log10 of the molar value.

For this experiment, the target named is T1, oestrogen receptor (ER) (Homo sapiens, UniProt P03372).
T1 construct: These MVLN cells express, along with the functional oestrogen receptor (ER), a reporter construct; endogenous in cells; host or cells: MVLN cells (MCF7 derivative carrying a luciferase reporter construct)
T1 sequence (P03372 1-595): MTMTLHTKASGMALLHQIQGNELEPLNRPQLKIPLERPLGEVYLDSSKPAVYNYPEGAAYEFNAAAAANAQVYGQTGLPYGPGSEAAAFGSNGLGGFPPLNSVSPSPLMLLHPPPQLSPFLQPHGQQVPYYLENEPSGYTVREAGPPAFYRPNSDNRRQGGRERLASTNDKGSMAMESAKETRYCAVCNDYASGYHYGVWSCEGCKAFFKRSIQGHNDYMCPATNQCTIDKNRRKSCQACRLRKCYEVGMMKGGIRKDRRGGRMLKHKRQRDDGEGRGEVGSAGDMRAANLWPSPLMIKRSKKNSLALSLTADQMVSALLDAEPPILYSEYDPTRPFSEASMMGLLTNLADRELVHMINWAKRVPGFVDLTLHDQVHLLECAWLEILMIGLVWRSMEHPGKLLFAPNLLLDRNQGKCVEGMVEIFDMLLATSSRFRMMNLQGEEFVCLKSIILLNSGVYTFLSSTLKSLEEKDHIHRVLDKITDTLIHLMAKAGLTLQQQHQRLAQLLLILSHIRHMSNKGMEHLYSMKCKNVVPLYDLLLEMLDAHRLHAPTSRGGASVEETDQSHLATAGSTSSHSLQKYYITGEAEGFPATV
As to the kind of experiment: Anti-oestrogenic action in MVLN cells (inhibition of estradiol-induced luciferase). The format is cell-based. As to conditions: inhibition of estradiol-induced luciferase signal, value of Ex. 44 is a mean value, read-out: Antioestrogenic action in vitro: MVLN transactivation antagonism IC50. The method, boiled down:
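MVLN cells, MCF7 breast cancer derivatives carrying functional ER plus an ER-activated luciferase reporter, were treated with compounds in the presence of estradiol. Anti-oestrogenic activity taken as inhibition of the estradiol-induced luciferase signal.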
Regarding `CN(CCCCCCC1=C(c2ccc(F)cc2)CCCc2cc(O)c(F)cc21)CCCS(=O)(=O)CCCCC(F)(F)F` [Example 102, 2-Fluoro-8-(4-fluorophenyl)-9-[6-(methyl{3-[(5,5,5-trifluoropentyl)sulphonyl]propyl}amino)hexyl]-6,7-dihydro-5H-benzo[7]annulen-3-ol], the pIC50 is 8.00.

For `O=S(=O)(CCCN(CCO)CCCCCCC1=C(c2ccc(F)cc2)CCCc2cc(O)c(F)cc21)CCCC(F)(F)F` [Example 103, 2-Fluoro-8-(4-fluorophenyl)-9-{6-[(2-hydroxyethyl){3-[(4,4,4-trifluorobutyl)sulphonyl]propyl}amino]hexyl}-6,7-dihydro-5H-benzo[7]annulen-3-ol], the negative logarithm of the IC50 (pIC50) is 8.30.

For `O=S(=O)(CCCCN(CCO)CCCCCCC1=C(c2ccc(F)cc2)CCCc2cc(O)c(F)cc21)CCCC(F)(F)F` [Example 104, 2-Fluoro-8-(4-fluorophenyl)-9-{6-[(2-hydroxyethyl){4-[(4,4,4-trifluorobutyl)sulphonyl]butyl}amino]hexyl}-6,7-dihydro-5H-benzo[7]annulen-3-ol], the pIC50 is 8.15.

Take `CN(CCCCCCC1=C(c2ccc(F)cc2)CCCc2cc(O)c(F)cc21)CCCCS(=O)(=O)CCCC(F)(F)C(F)(F)F` [Example 105, 2-Fluoro-8-(4-fluorophenyl)-9-[6-(methyl{4-[(4,4,5,5,5-pentafluoropentyl)sulphonyl]butyl}amino)hexyl]-6,7-dihydro-5H-benzo[7]annulen-3-ol]: the negative-log IC50 (pIC50) is 7.92.

As for `CN(CCCCCCC1=C(c2ccc(F)cc2)CCCc2cc(O)c(F)cc21)CCCCS(=O)(=O)CCC(F)(F)F` [Example 106, 2-Fluoro-8-(4-fluorophenyl)-9-[6-(methyl{4-[(3,3,3-trifluoropropyl)sulphonyl]butyl}amino)hexyl]-6,7-dihydro-5H-benzo[7]annulen-3-ol], the negative-log IC50 (pIC50) is 8.00.

`CN(CCCCCCC1=C(c2ccc(F)cc2)CCCc2cc(O)c(F)cc21)CCCCCS(=O)(=O)CCC(F)(F)F` [Example 107, 2-Fluoro-8-(4-fluorophenyl)-9-[6-(methyl{5-[(3,3,3-trifluoropropyl)sulphonyl]pentyl}amino)hexyl]-6,7-dihydro-5H-benzo[7]annulen-3-ol]: the pIC50 is 6.91.

Regarding `O=S(=O)(CCCN(CCO)CCCCCCC1=C(c2ccc(F)cc2)CCCc2cc(O)ccc21)CCC(F)(C(F)(F)F)C(F)(F)F` [Example 108, 8-(4-Fluorophenyl)-9-{6-[(2-hydroxyethyl)(3-{[3,4,4,4-tetrafluoro-3-(trifluoromethyl)butyl]sulphonyl}propyl)amino]hexyl}-6,7-dihydro-5H-benzo[7]annulen-3-ol], the pIC50 was 7.16.

Consider `O=S(=O)(CCCCN(CCO)CCCCCCC1=C(c2ccc(F)cc2)CCCc2cc(O)ccc21)CCC(F)(C(F)(F)F)C(F)(F)F` [Example 109, 8-(4-Fluorophenyl)-9-{6-[(2-hydroxyethyl)(4-{[3,4,4,4-tetrafluoro-3-(trifluoromethyl)butyl]sulphonyl}butyl)amino]hexyl}-6,7-dihydro-5H-benzo[7]annulen-3-ol], for which the negative logarithm of the IC50 (pIC50) is 7.59.

Consider `CN(CCCCCCC1=C(c2ccc(F)cc2)CCCc2cc(O)ccc21)CCCS(=O)(=O)CCC(F)(C(F)(F)F)C(F)(F)F` [Example 110, 8-(4-Fluorophenyl)-9-{6-[methyl(3-{[3,4,4,4-tetrafluoro-3-(trifluoromethyl)butyl]sulphonyl}propyl)amino]hexyl}-6,7-dihydro-5H-benzo[7]annulen-3-ol], for which the pIC50 was 7.14.

Take `CN(CCCCCCC1=C(c2ccc(F)cc2)CCCc2cc(O)ccc21)CCCCS(=O)(=O)CCC(F)(C(F)(F)F)C(F)(F)F` [Example 111, 8-(4-Fluorophenyl)-9-{6-[methyl(4-{[3,4,4,4-tetrafluoro-3-(trifluoromethyl)butyl]sulphonyl}butyl)amino]hexyl}-6,7-dihydro-5H-benzo[7]annulen-3-ol]: the pIC50 was 7.48.

On to `O=S(=O)(CCCCC(F)(F)F)CCCNCCCCCCC1=C(c2ccc(F)cc2)CCCc2cc(O)ccc21` [Example 112, 8-(4-Fluorophenyl)-9-[6-({3-[(5,5,5-trifluoropentyl)sulphonyl]propyl}amino)hexyl]-6,7-dihydro-5H-benzo[7]annulen-3-ol], for which the pIC50 is 8.15.

With `O=S(=O)(CCCNCCCCCCC1=C(c2ccc(F)cc2)CCCc2cc(O)ccc21)CCCC(F)(F)C(F)(F)F` [Example 113, 8-(4-Fluorophenyl)-9-[6-({3-[(4,4,5,5,5-pentafluoropentyl)sulphonyl]propyl}amino)hexyl]-6,7-dihydro-5H-benzo[7]annulen-3-ol], the negative-log IC50 (pIC50) is 7.74.

Regarding `CC(C)(O)CN(CCCCCCC1=C(c2ccc(F)cc2)CCCc2cc(O)ccc21)CCCS(=O)(=O)CCC(F)(F)F` [Example 119, 8-(4-fluorophenyl)-9-{6-[(2-hydroxy-2-methylpropyl){3-[(3,3,3-trifluoropropyl)sulphonyl]propyl}amino]hexyl}-6,7-dihydro-5H-benzo[7]annulen-3-ol], the negative-log IC50 (pIC50) is 7.10.

With `CC(C)(O)CN(CCCCCCC1=C(c2ccc(F)cc2)CCCc2cc(O)ccc21)CCC[S+]([O-])CCC(F)(F)F` (stereo not shown) [Example 120, 8-(4-fluorophenyl)-9-{6-[(2-hydroxy-2-methylpropyl){3-[(3,3,3-trifluoropropyl)sulphinyl]propyl}amino)hexyl}-6,7-dihydro-5H-benzo[7]annulen-3-ol], the negative-log IC50 (pIC50) is 7.25.

For the molecule `CN(CCCCCCC1=C(c2ccc(F)cc2)CCCc2cc(O)ccc21)CCCS(=O)(=O)C1CCC(F)(F)CC1` [Example 121, 9-{6-[{3-[(4,4-difluorocyclohexyl)sulphonyl]propyl}(methyl)amino]hexyl}-8-(4-fluorophenyl)-6,7-dihydro-5H-benzo[7]annulen-3-ol], the negative-log IC50 (pIC50) was 7.39.

Turning to `CN(CCCCCCC1=C(c2ccccc2F)CCCc2cc(O)ccc21)CCCS(=O)(=O)CCCC(F)(F)C(F)(F)F` [Example 126], the negative-log IC50 (pIC50) was 8.05.

`CN(CCCCCC1=C(c2ccc(F)cc2)CCCc2cc(O)ccc21)CCCS(=O)(=O)CCCC(F)(F)C(F)(F)F` [Example 127]: the negative-log IC50 (pIC50) was 7.16.

Regarding `CN(CCCCCCC1=C(c2ccc(F)cc2F)CCCc2cc(O)ccc21)CCCS(=O)(=O)CCCC(F)(F)C(F)(F)F` [Example 128, 8-(2,4-Difluorophenyl)-9-[6-(methyl{3-[(4,4,5,5,5-pentafluoropentyl)sulphonyl]propyl}amino)hexyl]-6,7-dihydro-5H-benzo[7]annulen-3-ol], the pIC50 is 8.22.

With `CN(CCCCCCC1=C(c2ccc(F)cc2F)CCCc2cc(O)ccc21)CCCS(=O)(=O)CCCCC(F)(F)F` [Example 129, 8-(2,4-Difluorophenyl)-9-[6-(methyl{3-[(5,5,5-trifluoropentyl)sulphonyl]propyl}amino)hexyl]-6,7-dihydro-5H-benzo[7]annulen-3-ol], the negative logarithm of the IC50 (pIC50) was 8.30.

Turning to `CN(CCCCCCC1=C(c2ccc(F)cc2F)CCCc2cc(O)ccc21)CCCS(=O)(=O)CCC(F)(F)F` [Example 130, 8-(2,4-Difluorophenyl)-9-[6-(methyl{3-[(3,3,3-trifluoropropyl)sulphonyl]propyl}amino)hexyl]-6,7-dihydro-5H-benzo[7]annulen-3-ol], the pIC50 was 7.80.

Turning to `CN(CCCCCCC1=C(c2ccc(F)cc2F)CCCc2cc(O)ccc21)CCCCS(=O)(=O)CCC(F)(F)F` [Example 131, 8-(2,4-Difluorophenyl)-9-[6-(methyl{4-[(3,3,3-trifluoropropyl)sulphonyl]butyl}amino)hexyl]-6,7-dihydro-5H-benzo[7]annulen-3-ol], the pIC50 was 8.52.

Take `CN(CCCCCCC1=C(c2ccc(F)cc2F)CCCc2cc(O)ccc21)CCCCS(=O)(=O)CCCC(F)(F)F` [Example 132, 8-(2,4-Difluorophenyl)-9-[6-(methyl{4-[(4,4,4-trifluorobutyl)sulphonyl]butyl}amino)hexyl]-6,7-dihydro-5H-benzo[7]annulen-3-ol]: the negative logarithm of the IC50 (pIC50) is 8.40.

With `CN(CCCCCCC1=C(c2ccc(F)cc2F)CCCc2cc(O)ccc21)CCCCCS(=O)(=O)CCC(F)(F)F` [Example 133, 8-(2,4-Difluorophenyl)-9-[6-(methyl{5-[(3,3,3-trifluoropropyl)sulphonyl]pentyl}amino)hexyl]-6,7-dihydro-5H-benzo[7]annulen-3-ol], the pIC50 is 8.15.

On to `CN(CCCCCCC1=C(c2ccc(F)cc2F)CCCc2cc(O)ccc21)CCCS(=O)(=O)CCCC(F)(F)F` [Example 134, 8-(2,4-Difluorophenyl)-9-[6-(methyl{3-[(4,4,4-trifluorobutyl)sulphonyl]propyl}amino)hexyl]-6,7-dihydro-5H-benzo[7]annulen-3-ol], for which the negative logarithm of the IC50 (pIC50) was 8.30.

As for `CN(CCCCCCC1=C(c2ccc(F)cc2F)CCCc2cc(O)ccc21)CCCS(=O)(=O)CCCCCC(F)(F)F` [Example 135, 8-(2,4-Difluorophenyl)-9-[6-(methyl{3-[(6,6,6-trifluorohexyl)sulphonyl]propyl}amino)hexyl]-6,7-dihydro-5H-benzo[7]annulen-3-ol], the pIC50 is 8.30.
